Test results published in the NIST ThermoML archive (doi:10.1021/je060170c).

Test: xn = mol fraction of the nth substance listed
Conditions: 101 kPa, Liquid; for viscosity: Anton Paar Stabinger viscometer

COc1ccccc1 [anisole] + Cc1cccc(C)c1
Conditions | mass density [kg/m3] | speed of sound [m/s] | viscosity [mPa·s]
288.15 K, x1 = 0.1144 | 882.011 | 1369.2 | 0.696
288.15 K, x1 = 0.2566 | 899.519 | 1380.5 | 0.745
288.15 K, x1 = 0.3821 | 915.327 | 1390.9 | 0.799
288.15 K, x1 = 0.5034 | 930.924 | 1401 | 0.856
288.15 K, x1 = 0.6546 | 950.873 | 1414.1 | 0.933
288.15 K, x1 = 0.7535 | 964.193 | 1424 | 0.995
288.15 K, x1 = 0.8432 | 976.464 | 1432 | 1.049
288.15 K, x1 = 0.9133 | 986.213 | 1439.3 | 1.103
288.15 K, x1 = 0.9576 | 992.455 | 1445.2 | 1.149
288.15 K, x1 = 1 | 998.44 | 1449.1 | 1.188
293.15 K, x1 = 0.1144 | 877.742 | 1351 | 0.645
293.15 K, x1 = 0.2566 | 895.185 | 1362.2 | 0.688
293.15 K, x1 = 0.3821 | 910.905 | 1372.1 | 0.734
293.15 K, x1 = 0.5034 | 926.441 | 1381.4 | 0.783
293.15 K, x1 = 0.6546 | 946.321 | 1393.9 | 0.851
293.15 K, x1 = 0.7535 | 959.605 | 1402.8 | 0.908
293.15 K, x1 = 0.8432 | 971.843 | 1411.1 | 0.958
293.15 K, x1 = 0.9133 | 981.575 | 1418.4 | 1.008
293.15 K, x1 = 0.9576 | 987.755 | 1423.6 | 1.051
293.15 K, x1 = 1 | 993.651 | 1428.5 | 1.084
298.15 K, x1 = 0.1144 | 873.473 | 1328.5 | 0.607
298.15 K, x1 = 0.2566 | 890.874 | 1339.2 | 0.647
298.15 K, x1 = 0.3821 | 906.561 | 1349.8 | 0.687
298.15 K, x1 = 0.5034 | 922.056 | 1360.1 | 0.734
298.15 K, x1 = 0.6546 | 941.9 | 1373.5 | 0.798
298.15 K, x1 = 0.7535 | 955.192 | 1382.5 | 0.852
298.15 K, x1 = 0.8432 | 967.423 | 1391 | 0.899
298.15 K, x1 = 0.9133 | 977.136 | 1398.1 | 0.947
298.15 K, x1 = 0.9576 | 983.283 | 1403.1 | 0.988
298.15 K, x1 = 1 | 989.15 | 1408 | 1.017
303.15 K, x1 = 0.1144 | 869.172 | 1308 | 0.574
303.15 K, x1 = 0.2566 | 886.499 | 1318.7 | 0.604
303.15 K, x1 = 0.3821 | 902.126 | 1328.8 | 0.639
303.15 K, x1 = 0.5034 | 917.578 | 1339.1 | 0.677
303.15 K, x1 = 0.6546 | 937.368 | 1352.6 | 0.733
303.15 K, x1 = 0.7535 | 950.619 | 1362 | 0.782
303.15 K, x1 = 0.8432 | 962.844 | 1371 | 0.824
303.15 K, x1 = 0.9133 | 972.502 | 1378.3 | 0.868
303.15 K, x1 = 0.9576 | 978.641 | 1383.1 | 0.905
303.15 K, x1 = 1 | 984.372 | 1387.7 | 0.931
